Literature values in patent publication US20090117199A1, “Method of treatment of cancer” (priority 1998, published 2009).
Read-outs that look alike come from different tables or passages of the source.

What was measured:
[1] = test system: melanoma; details: cited from earlier work
[2] = test system: melanoma; details: single-agent chemotherapy; cited from earlier work
[3] = IL cisplatin or IL cisplatin with electroporation, lower end of reported results
[4] = IL cisplatin or IL cisplatin with electroporation, upper end of reported results

N.N.[Cl][Pt][Cl] [cisplatin]
CR [1, 3]: 19% | ORR [1, 3]: 38% | PR [1, 3]: 19% | CR [1, 4]: 47% | ORR [1, 4]: 53% | PR [1, 4]: 7% | ORR ([1]; lesions having a median diameter of 3.0 cm): 44% | ORR ([1]; lesions with a median diameter of 0.6 cm): 53%

CN(C)/N=N/c1[nH]cnc1C(N)=O [dacarbazine]
cases in which treatment is successful [2]: 10-15%

bleomycin
efficacy ([1]; single electrochemotherapy treatment, IL, response reduced in larger tumors): Substantial efficacy

B1: IFNγ: IL interferon (protein, UniProt P01579 24-161, looked up)
Interferon gamma: QDPYVKEAENLKKYFNAGHSDVADNGTLFLGILKNWKEESDRKIMQSQIVSFYFKLFKNFKDDQSIQKSVETIKEDMNVKFFNSNKKKRDDFEKLTNYSVTDLNVQRKAIHELIQVMAELSPAAKTGKRKRSQMLFRG
response ([1]; IL therapy, prior reports): no result of transient response | toxicity and side effects ([1]; in vivo): significant toxicity and side effects
